Experimental data: US9708314B2, “Heterocyclic amide compound” (NISSAN CHEMICAL INDUSTRIES, LTD., priority 2013, dated 2017)

Key:
Type in all cases: in vivo
Alopecurus myosuroides = assay: Test Example 4: herbicidal effect by application to foliage (diluvial soil, plastic box); conditions: for J: herbicidal effect on Alopecurus myosuroides / herbicidal effect, J (Alopecurus myosuroides): application to foliage; for J: herbicidal effect on Alopecurus myosuroides: application herbicide amount 320 g/ha
In short: (§1)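 Seeds sown in sterilized diluvial soil, covered ~1.5 cm, grown 14 days in greenhouse at 25° C. to 30° C. Emulsion formulation diluted in water to set rate (g/ha) and sprayed onto stems and leaves. Effect scored visually 3 weeks later on 0–5 scale (5 = ≥90% herbicidal ratio, 0 = ≤5%).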

Galium spurium = assay: as above; conditions: for Q: herbicidal effect on Galium spurium / herbicidal effect, Q (Galium spurium): application to foliage; for Q: herbicidal effect on Galium spurium: application herbicide amount 320 g/ha
In short: as §1

Setaria viridis = assay: as above; conditions: for G: herbicidal effect on Setaria viridis / herbicidal effect, G (Setaria viridis): application to foliage; for G: herbicidal effect on Setaria viridis: application herbicide amount 320 g/ha
In short: as §1

Veronica persica = assay: as above; conditions: for R: herbicidal effect on Veronica persica / herbicidal effect, R (Veronica persica): application to foliage; for R: herbicidal effect on Veronica persica: application herbicide amount 320 g/ha
In short: as §1

Digitaria ciliaris = assay: as above; conditions: for F: herbicidal effect on Digitaria ciliaris / herbicidal effect, F (Digitaria ciliaris): application to foliage; for F: herbicidal effect on Digitaria ciliaris: application herbicide amount 320 g/ha
In short: as §1

[1] = tested on: Echinochloa crus-galli var. crus-galli; assay: Test Example 3: herbicidal effect by application to foliage (Wagner pot, water depth 0.1-0.5 cm); conditions: Nineteenth Table; application to foliage; application herbicide amount 320 g/ha
In short: (§2)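 Post-emergence foliar application at a stated g/ha rate to plants grown 14 days from seed in alluvial soil, greenhouse 25–30 °C. Visual score after 3 weeks: 0 (≤5% effect) through 5 (≥90%).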

Cyperus difformis = assay: as above; conditions: Nineteenth Table; application to foliage; application herbicide amount 320 g/ha
In short: as §2

Leptochloa chinensis = assay: as above; conditions: Nineteenth Table; application to foliage; application herbicide amount 320 g/ha
In short: as §2

Stellaria media = assay: Test Example 4: herbicidal effect by application to foliage (diluvial soil, plastic box); conditions: application to foliage; for P: herbicidal effect on Stellaria media: application herbicide amount 320 g/ha; for herbicidal effect, P (Stellaria media): 320 g/ha
In short: as §1

Compound: O=C(Nc1nnco1)c1ccc(C(F)(F)F)n2c(SC3CCCC3)nnc12 [1-155]
- J: herbicidal effect on Alopecurus myosuroides (Alopecurus myosuroides): 0 (Herbicidal ratio of 5% or less (almost no effect))
- Q: herbicidal effect on Galium spurium (Galium spurium): 0 (Herbicidal ratio of 5% or less (almost no effect))
- G: herbicidal effect on Setaria viridis (Setaria viridis): 1 (Herbicidal ratio of 5% or more and less than 20%)
- R: herbicidal effect on Veronica persica (Veronica persica): 2 (Herbicidal ratio of 20% or more and less than 40%)
- F: herbicidal effect on Digitaria ciliaris (Digitaria ciliaris): 3 (Herbicidal ratio of 40% or more and less than 70%)
- H (herbicidal effect grade) [1]: 1 (Herbicidal ratio of 5% or more and less than 20%)
- E (herbicidal effect grade) (Cyperus difformis): 5 (Herbicidal ratio of 90% or more (almost completely withered))
- D (herbicidal effect grade) (Leptochloa chinensis): 2 (Herbicidal ratio of 20% or more and less than 40%)

Compound: O=C(Nc1nnco1)c1ccc(C(F)(F)F)n2c(SCc3ccc(Cl)nc3)nnc12 [1-157]
- J: herbicidal effect on Alopecurus myosuroides (Alopecurus myosuroides): 1 (Herbicidal ratio of 5% or more and less than 20%)
- Q: herbicidal effect on Galium spurium (Galium spurium): 1 (Herbicidal ratio of 5% or more and less than 20%)
- G: herbicidal effect on Setaria viridis (Setaria viridis): 1 (Herbicidal ratio of 5% or more and less than 20%)
- R: herbicidal effect on Veronica persica (Veronica persica): 2 (Herbicidal ratio of 20% or more and less than 40%)
- F: herbicidal effect on Digitaria ciliaris (Digitaria ciliaris): 3 (Herbicidal ratio of 40% or more and less than 70%)
- H (herbicidal effect grade) [1]: 4 (Herbicidal ratio of 70% or more and less than 90%)
- E (herbicidal effect grade) (Cyperus difformis): 4 (Herbicidal ratio of 70% or more and less than 90%)
- D (herbicidal effect grade) (Leptochloa chinensis): 3 (Herbicidal ratio of 40% or more and less than 70%)

Compound: COc1ccc(N(C)c2nnc3c(C(=O)Nc4nnco4)ccc(C(F)(F)F)n23)cc1 [1-171]
- P: herbicidal effect on Stellaria media (Stellaria media): 5 (Herbicidal ratio of 90% or more (almost completely withered))
- J: herbicidal effect on Alopecurus myosuroides (Alopecurus myosuroides): 0 (Herbicidal ratio of 5% or less (almost no effect))
- Q: herbicidal effect on Galium spurium (Galium spurium): 2 (Herbicidal ratio of 20% or more and less than 40%)
- G: herbicidal effect on Setaria viridis (Setaria viridis): 3 (Herbicidal ratio of 40% or more and less than 70%)
- R: herbicidal effect on Veronica persica (Veronica persica): 3 (Herbicidal ratio of 40% or more and less than 70%)
- F: herbicidal effect on Digitaria ciliaris (Digitaria ciliaris): 3 (Herbicidal ratio of 40% or more and less than 70%)
- H (herbicidal effect grade) [1]: 4 (Herbicidal ratio of 70% or more and less than 90%)
- D (herbicidal effect grade) (Leptochloa chinensis): 4 (Herbicidal ratio of 70% or more and less than 90%)

Compound: C=CCN(C)c1nnc2c(C(=O)Nc3nnco3)ccc(C(F)(F)F)n12 [1-172]
- P: herbicidal effect on Stellaria media (Stellaria media): 5 (Herbicidal ratio of 90% or more (almost completely withered))
- J: herbicidal effect on Alopecurus myosuroides (Alopecurus myosuroides): 1 (Herbicidal ratio of 5% or more and less than 20%)
- Q: herbicidal effect on Galium spurium (Galium spurium): 4 (Herbicidal ratio of 70% or more and less than 90%)
- G: herbicidal effect on Setaria viridis (Setaria viridis): 4 (Herbicidal ratio of 70% or more and less than 90%)
- R: herbicidal effect on Veronica persica (Veronica persica): 4 (Herbicidal ratio of 70% or more and less than 90%)
- F: herbicidal effect on Digitaria ciliaris (Digitaria ciliaris): 5 (Herbicidal ratio of 90% or more (almost completely withered))
- H (herbicidal effect grade) [1]: 5 (Herbicidal ratio of 90% or more (almost completely withered))
- D (herbicidal effect grade) (Leptochloa chinensis): 5 (Herbicidal ratio of 90% or more (almost completely withered))

Compound: CC(C)c1nnc2c(C(=O)Nc3nnnn3C)ccc(C(F)(F)C(F)(F)F)n12 [2-049]
- J (Alopecurus myosuroides) herbicidal effect grade (Alopecurus myosuroides; foliage application, 320 g/ha): 1 (Herbicidal ratio of 5% or more and less than 20%)
- Q (Galium spurium) herbicidal effect grade (Galium spurium; foliage application, 320 g/ha): 3 (Herbicidal ratio of 40% or more and less than 70%)
- G (Setaria viridis) herbicidal effect grade (Setaria viridis; foliage application, 320 g/ha): 5 (Herbicidal ratio of 90% or more (almost completely withered))
- R (Veronica persica) herbicidal effect grade (Veronica persica; foliage application, 320 g/ha): 4 (Herbicidal ratio of 70% or more and less than 90%)
- F (Digitaria ciliaris) herbicidal effect grade (Digitaria ciliaris; foliage application, 320 g/ha): 5 (Herbicidal ratio of 90% or more (almost completely withered))
- H (herbicidal effect grade) [1]: 5 (Herbicidal ratio of 90% or more (almost completely withered))
- E (herbicidal effect grade) (Cyperus difformis): 5 (Herbicidal ratio of 90% or more (almost completely withered))
- D (herbicidal effect grade) (Leptochloa chinensis): 5 (Herbicidal ratio of 90% or more (almost completely withered))

Compound: COc1ccc(N(C)c2nnc3c(C(=O)Nc4nnnn4C)ccc(C(F)(F)F)n23)cc1 [2-099]
- herbicidal effect, P (Stellaria media) (Stellaria media): 5 (Herbicidal ratio of 90% or more (almost completely withered))
- herbicidal effect, J (Alopecurus myosuroides) (Alopecurus myosuroides; 320 g/ha): 0 (Herbicidal ratio of 5% or less (almost no effect))
- herbicidal effect, Q (Galium spurium) (Galium spurium; 320 g/ha): 4 (Herbicidal ratio of 70% or more and less than 90%)
- herbicidal effect, G (Setaria viridis) (Setaria viridis; 320 g/ha): 4 (Herbicidal ratio of 70% or more and less than 90%)
- herbicidal effect, R (Veronica persica) (Veronica persica; 320 g/ha): 5 (Herbicidal ratio of 90% or more (almost completely withered))
- herbicidal effect, F (Digitaria ciliaris) (Digitaria ciliaris; 320 g/ha): 5 (Herbicidal ratio of 90% or more (almost completely withered))
- H (herbicidal effect grade) [1]: 5 (Herbicidal ratio of 90% or more (almost completely withered))
- D (herbicidal effect grade) (Leptochloa chinensis): 5 (Herbicidal ratio of 90% or more (almost completely withered))

Compound: C=CCN(C)c1nnc2c(C(=O)Nc3nnnn3C)ccc(C(F)(F)F)n12 [2-100]
- herbicidal effect, P (Stellaria media) (Stellaria media): 5 (Herbicidal ratio of 90% or more (almost completely withered))
- herbicidal effect, J (Alopecurus myosuroides) (Alopecurus myosuroides; 320 g/ha): 2 (Herbicidal ratio of 20% or more and less than 40%)
- herbicidal effect, Q (Galium spurium) (Galium spurium; 320 g/ha): 5 (Herbicidal ratio of 90% or more (almost completely withered))
- herbicidal effect, G (Setaria viridis) (Setaria viridis; 320 g/ha): 4 (Herbicidal ratio of 70% or more and less than 90%)
- herbicidal effect, R (Veronica persica) (Veronica persica; 320 g/ha): 5 (Herbicidal ratio of 90% or more (almost completely withered))
- herbicidal effect, F (Digitaria ciliaris) (Digitaria ciliaris; 320 g/ha): 5 (Herbicidal ratio of 90% or more (almost completely withered))
- H (herbicidal effect grade) [1]: 5 (Herbicidal ratio of 90% or more (almost completely withered))
- D (herbicidal effect grade) (Leptochloa chinensis): 5 (Herbicidal ratio of 90% or more (almost completely withered))

Compound: COCCSc1nnc2c(C(=O)Nc3nnnn3C)ccc(C(F)(F)F)n12 [2-101]
- herbicidal effect, P (Stellaria media) (Stellaria media): 5 (Herbicidal ratio of 90% or more (almost completely withered))
- herbicidal effect, J (Alopecurus myosuroides) (Alopecurus myosuroides; 320 g/ha): 3 (Herbicidal ratio of 40% or more and less than 70%)
- herbicidal effect, Q (Galium spurium) (Galium spurium; 320 g/ha): 4 (Herbicidal ratio of 70% or more and less than 90%)
- herbicidal effect, G (Setaria viridis) (Setaria viridis; 320 g/ha): 5 (Herbicidal ratio of 90% or more (almost completely withered))
- herbicidal effect, R (Veronica persica) (Veronica persica; 320 g/ha): 5 (Herbicidal ratio of 90% or more (almost completely withered))
- herbicidal effect, F (Digitaria ciliaris) (Digitaria ciliaris; 320 g/ha): 5 (Herbicidal ratio of 90% or more (almost completely withered))
- H (herbicidal effect grade) [1]: 5 (Herbicidal ratio of 90% or more (almost completely withered))
- D (herbicidal effect grade) (Leptochloa chinensis): 5 (Herbicidal ratio of 90% or more (almost completely withered))

Compound: C=CCSc1nnc2c(C(=O)Nc3nnnn3C)ccc(C(F)(F)F)n12 [2-102]
- herbicidal effect, P (Stellaria media) (Stellaria media): 5 (Herbicidal ratio of 90% or more (almost completely withered))
- herbicidal effect, J (Alopecurus myosuroides) (Alopecurus myosuroides; 320 g/ha): 0 (Herbicidal ratio of 5% or less (almost no effect))
- herbicidal effect, Q (Galium spurium) (Galium spurium; 320 g/ha): 3 (Herbicidal ratio of 40% or more and less than 70%)
- herbicidal effect, G (Setaria viridis) (Setaria viridis; 320 g/ha): 4 (Herbicidal ratio of 70% or more and less than 90%)
- herbicidal effect, R (Veronica persica) (Veronica persica; 320 g/ha): 5 (Herbicidal ratio of 90% or more (almost completely withered))
- herbicidal effect, F (Digitaria ciliaris) (Digitaria ciliaris; 320 g/ha): 5 (Herbicidal ratio of 90% or more (almost completely withered))
- H (herbicidal effect grade) [1]: 5 (Herbicidal ratio of 90% or more (almost completely withered))
- D (herbicidal effect grade) (Leptochloa chinensis): 4 (Herbicidal ratio of 70% or more and less than 90%)
